Test system: 817829-284-R-J1-PDC complex spheroid viability
Assay: Anticancer human tumor 817829-284-R-J1-PDC patient-derived colon adenocarcinoma cell line growth inhibition [POLQ]
Details: for IC50: curve of first compound; for viability, T/C: stronger effect = lower value; active = viability on the fitted dose curve at most 10% of control; inactive = the rest
Description: Multicellular complex tumor spheroid response to Polymerase (POL) inhibitors (novobiocin, ART-558, RP6685) in combination with a variety of drugs and investigational agents in selected tumor cell lines
The POL inhibitors (novobiocin, ART-558, and RP6685) were evaluated both individually and in combination with standard of care and investigational anticancer small molecules within a complex spheroid model of solid tumors. . Complex spheroids include a stromal component modeled by human endothelial cells (HUVEC) and fibroblasts modeled by human mesenchymal stem cells (MSCs). The concentration ranges selected for each drug and investigational agent were based upon clinically achievable concentrations if the clinical Cmax of the agent was known.
Compounds. The drugs and investigational agents: novobiocin (NSC847541), ART-558 (NSC835418), RP-6685 (NSC848927), peposertib (NSC802822), ceralasertib (NSC780249), elimusertib (NSC800525), camonsertib (NSC841442), AZD-1390 (NSC803789), olaparib (NSC753686), talazoparib (NSC767125), rucaparib (NSC756644), sotorasib (NSC818433), MRTX-1133 (NSC836407), SN-38 (NSC673596), topotecan (NSC609699), epotoside (NSC141540), doxorubicin (NSC123127), gemcitabine (NSC613327), 5-fluorouracil (NSC19893), paclitaxel (NSC125973), vemurafenib (NSC761431), MSA-2 (NSC828583), SN-011 (NSC837082), adavosertib (NSC754352), prexasertib (NSC758257), carboplatin (NSC241240) and oxaliplatin (NSC266046), were obtained from the National Cancer Institute (NCI) Developmental Therapeutics Program Chemical Repository (21). The FDA-approved anticancer drug set is available from the Developmental Therapeutics Program at https://dtp.cancer.gov/organization/dscb/obtaining/. […] The stock solutions were prepared in dimethyl sulfoxide (DMSO, Sigma-Aldrich, St. Louis, MO, cat. D2650), except for the platinum compounds which were prepared in saline (Quality Biological, Gaithersburg, MD, cat. 114-055-101), at 800-fold the tested concentration and stored at -70 degrees C prior to their use. All drugs and investigational agents were tested over a range starting from a high concentration at or near the clinical Cmax and decreasing in half-log increments. If the clinical Cmax for an agent had not been determined, the highest concentration tested was 10 microM, except for SN-38, which was tested at a high concentration of 1 microM.
Cell Culture. All cells were maintained in an incubator at 37 degrees C and 5% CO2 with 95% humidity. The PDC lines were cultured according to standard operating procedures established by the NCI PDMR (https://pdmr.cancer.gov). Table 3 of the manuscript, lists the cell lines along with the number of the three cell types plated to form the mct-spheroids and media for tumor cell growth. After thawing, all PDC lines, except 997537-175-T-J1-PDC and 415267-285-R-J2-PDC, were cultured in Matrigel-coated flasks prepared with a working solution of 1X Ham's F-12 nutrient mix, without supplementation (Thermo Fisher Scientific, cat. 11765054), 100 U/mL penicillin-streptomycin (Thermo Fisher Scientific, cat. 15140122), and 2.5% Matrigel (Corning Inc., Corning, NY, cat. 354248) for the first three passages. The two PDC lines 997537-175-T-J1-PDC and 415267-285-R-J2-PDC were cultured on uncoated flasks. The 857933-349-R-J2-PDC line was cultured in 6C/Colon 1B media containing advanced DMEM/F-12 (Thermo Fisher Scientific, cat. 12634028), 10 mM HEPES (Thermo Fisher Scientific, cat. 15630080), 1X GlutaMAX supplement (Thermo Fisher Scientific, cat. 35050061), 0.1 mg/mL primocin (InvivoGen, San Diego, CA, cat. ant-pm-2), 10% defined fetal bovine serum, heat inactivated (HyClone Laboratories Inc., Logan, UT, cat. SH30070.03HI), 50% L-WRN conditioned media (ATCC, cat. CRL-3276), 1.25 mM N-Acetyl-L-cysteine (Sigma-Aldrich, cat. A9165), 10 mM nicotinamide (Sigma-Aldrich, cat. N0636), 1X B-27 supplement (Thermo Fisher Scientific, cat. 17504044), 1X N-2 supplement (Thermo Fisher Scientific, cat. […]

[1] = second compound 0.0316 µM, first compound 0.0316 µM
[2] = second compound 0.0316 µM, first compound 0.1 µM
[3] = second compound 0.0316 µM, first compound 0.316 µM
[4] = second compound 0.0316 µM, first compound 1 µM
[5] = second compound 0.0316 µM, first compound 3.16 µM
[6] = second compound 0.0316 µM, first compound 10 µM
[7] = second compound 0.1 µM, first compound 0.0316 µM
[8] = second compound 0.1 µM, first compound 0.1 µM
[9] = second compound 0.1 µM, first compound 0.316 µM
[10] = second compound 0.1 µM, first compound 1 µM
[11] = second compound 0.1 µM, first compound 3.16 µM
[12] = second compound 0.1 µM, first compound 10 µM
[13] = second compound 0.316 µM, first compound 0.0316 µM
[14] = second compound 0.316 µM, first compound 0.1 µM
[15] = second compound 0.316 µM, first compound 0.316 µM
[16] = second compound 0.316 µM, first compound 1 µM
[17] = second compound 0.316 µM, first compound 3.16 µM
[18] = second compound 0.316 µM, first compound 10 µM
[19] = second compound 1 µM, first compound 0.0316 µM
[20] = second compound 1 µM, first compound 0.1 µM
[21] = second compound 1 µM, first compound 0.316 µM
[22] = second compound 1 µM, first compound 1 µM
[23] = second compound 1 µM, first compound 3.16 µM
[24] = second compound 1 µM, first compound 10 µM
[25] = second compound 3.16 µM, first compound 0.0316 µM
[26] = second compound 3.16 µM, first compound 0.1 µM
[27] = second compound 3.16 µM, first compound 0.316 µM
[28] = second compound 3.16 µM, first compound 1 µM
[29] = second compound 3.16 µM, first compound 3.16 µM
[30] = second compound 3.16 µM, first compound 10 µM
[31] = second compound 10 µM, first compound 0.0316 µM
[32] = second compound 10 µM, first compound 0.1 µM
[33] = second compound 10 µM, first compound 0.316 µM
[34] = second compound 10 µM, first compound 1 µM
[35] = second compound 10 µM, first compound 3.16 µM
[36] = second compound 10 µM, first compound 10 µM
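Also: spheroids exposed to compounds for 7 days.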
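For viability, T/C in this document: 100% = DMSO vehicle-treated spheroids.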

COc1cc(C2c3cc4c(cc3C(OC3OC5COC(C)OC5C(O)C3O)C3COC(=O)C23)OCO4)cc(OC)c1O (centres undefined) + Nc1ccc(C#CCN(C(=O)Cc2ncc(C(F)(F)F)cc2C(F)(F)F)c2ccc(F)cc2)nn1
active: viability, T/C [35] 10.7% | viability, T/C [36] 5.77%
0.0762 µM: IC50 (second compound 0.316 µM)
0.0996 µM: IC50 (second compound 0.1 µM)
0.129 µM: IC50 (second compound 1 µM)
0.0836 µM: IC50 (second compound 3.16 µM)
0.0681 µM: IC50 (second compound 0.0316 µM)
inactive: viability, T/C [1] 67.2% | viability, T/C [2] 43.9% | viability, T/C [3] 15.4% | viability, T/C [4] 24.5% | viability, T/C [5] 13.7% | viability, T/C [6] 6.78% | viability, T/C [7] 100% | viability, T/C [8] 50.4% | viability, T/C [9] 18% | viability, T/C [10] 20.8% | viability, T/C [11] 12.4% | viability, T/C [12] 7.13% | viability, T/C [13] 88% | viability, T/C [14] 38.7% | viability, T/C [15] 15.3% | viability, T/C [16] 24.4% | viability, T/C [17] 13.6% | viability, T/C [18] 4.94% | viability, T/C [19] 79.9% | viability, T/C [20] 59.5% | viability, T/C [21] 16.7% | viability, T/C [22] 19.8% | viability, T/C [23] 11.6% | viability, T/C [24] 5.6% | viability, T/C [25] 74.6% | viability, T/C [26] 47.3% | viability, T/C [27] 17.4% | viability, T/C [28] 22.4% | viability, T/C [29] 12% | viability, T/C [30] 6.2% | viability, T/C [31] 71.9% | viability, T/C [32] 42.7% | viability, T/C [33] 18.8% | viability, T/C [34] 13.1%
0.0737 µM: IC50 (second compound 10 µM)

O=c1[nH]cc(F)c(=O)[nH]1 + Nc1ccc(C#CCN(C(=O)Cc2ncc(C(F)(F)F)cc2C(F)(F)F)c2ccc(F)cc2)nn1
inactive: viability, T/C [1] 99.6% | viability, T/C [2] 110% | viability, T/C [3] 95.6% | viability, T/C [4] 54.1% | viability, T/C [5] 34% | viability, T/C [6] 28.1% | viability, T/C [7] 96.4% | viability, T/C [8] 102% | viability, T/C [9] 84.4% | viability, T/C [10] 64.4% | viability, T/C [11] 35.8% | viability, T/C [12] 27% | viability, T/C [13] 100% | viability, T/C [14] 98.8% | viability, T/C [15] 93.3% | viability, T/C [16] 63.9% | viability, T/C [17] 34% | viability, T/C [18] 23.7% | viability, T/C [19] 108% | viability, T/C [20] 89.3% | viability, T/C [21] 93.5% | viability, T/C [22] 60.5% | viability, T/C [23] 33.7% | viability, T/C [24] 26.1% | viability, T/C [25] 86.2% | viability, T/C [26] 108% | viability, T/C [27] 77.2% | viability, T/C [28] 55.8% | viability, T/C [29] 38.1% | viability, T/C [30] 27.4% | viability, T/C [31] 92.1% | viability, T/C [32] 92.8% | viability, T/C [33] 85.5% | viability, T/C [34] 54.8% | viability, T/C [35] 33% | viability, T/C [36] 26.7%
1.6 µM: IC50 (second compound 1 µM)
1.71 µM: IC50 (second compound 0.316 µM)
1.3 µM: IC50 (second compound 10 µM)
1.77 µM: IC50 (second compound 0.1 µM)
1.25 µM: IC50 (second compound 0.0316 µM)
1.37 µM: IC50 (second compound 3.16 µM)
